Assays:
[1] = tested on: serum Ca⁺⁺; assay: Rat model of humoral hypercalcemia of malignancy (transplanted Rice 500 Leydig cell tumor), serum Ca++; assay type: in vivo, male Fisher rats; settings: for Serum mg % Ca++: 40 mg/kg/day intubated once a day from two days after tumor transplantation
From the text: A rat model that closely mimics the human syndrome of Humoral Hypercalcemia of Malignancy was described by Insogna et al, Endocrinology 114, 888-896 (1984). In this model a Rice 500 Leydig cell tumor is transplated in male Fisher rats. […] These findings exactly parallel those in human humoral hypercalcemia of malignancy. The same model was used to study the effect of the formula I compound on lowering serum Ca⁺⁺ levels in rodents with established malignant hypercalcemia. Rats (150-200 gr) were intubated once a day with three different doses of the formula I compound including 10 mg, 25 mg and 80 mg/kg/day as shown in Figure 1. Control animals received no compound. The compound was given on days 10-15 after tumor transplantation when all animals were hypercalcemic. In experiment No. 2 (Table 1), rodents were intubated once a day with 40 mg/kg, of the formula I compound two days after tumor transplantation. These studies were utilized to examine whether the formula I compound could prevent tumor-induced hypercalcemia in these animals which generally appears 8-10 days after transplantation.

[2] = tested on: serum Ca⁺⁺; assay: Rat model of secondary hyperparathyroidism (Ca++ deficient diet), serum Ca++; assay type: in vivo, Rats; settings: intubated
From the text: In this model rats are fed a Ca⁺⁺ deficient diet, causing an enhanced release of parathyroid hormone (PTH) and secondary hyperparathyroidism. At this stage most of the serum Ca⁺⁺ is mobilized from bone. To maintain serum calcium levels within the normal range, bone resorption is stimulated by the released parathyroid hormone. This model was used to study the effect of Formula I compound on rats with secondary hyperparathyroidism. Rats (150-200 gr) were kept on a Ca⁺⁺ deficient diet for 7 days. Different doses of Formula I compound were intubated into animals (n=10) and serum Ca⁺⁺ was monitored at 0, 4, 8, 12 and 24 hours.

[3] = biological target: T1, papain (Carica papaya, UniProt P00784); settings: with the disappearance of the thiol group of papain; cited from earlier work
T1 sequence (P00784 134-345): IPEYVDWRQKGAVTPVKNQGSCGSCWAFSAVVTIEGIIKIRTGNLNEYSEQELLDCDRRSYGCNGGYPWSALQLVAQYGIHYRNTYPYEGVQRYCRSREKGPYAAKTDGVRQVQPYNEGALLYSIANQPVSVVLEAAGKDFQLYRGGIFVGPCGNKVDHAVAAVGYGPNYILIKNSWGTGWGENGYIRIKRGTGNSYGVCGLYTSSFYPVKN

[4] = biological target: cathepsin B (Homo sapiens, UniProt P07858); settings: cited from earlier work
[5] = biological target: T2, cathepsin H (Homo sapiens, UniProt P09668); settings: cited from earlier work
T2 sequence (P09668 98-335): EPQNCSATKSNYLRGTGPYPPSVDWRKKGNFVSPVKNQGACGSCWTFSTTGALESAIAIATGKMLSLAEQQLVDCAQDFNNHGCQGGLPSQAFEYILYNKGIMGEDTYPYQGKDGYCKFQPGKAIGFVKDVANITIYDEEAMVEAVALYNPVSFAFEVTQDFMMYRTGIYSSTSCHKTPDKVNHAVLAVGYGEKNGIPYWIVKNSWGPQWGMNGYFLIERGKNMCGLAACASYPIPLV

[6] = tested on: serine proteinases; settings: cited from earlier work
[7] = tested on: metalloproteinases; settings: cited from earlier work

CC(C)C[C@H](NC(=O)[C@H]1O[C@@H]1C(=O)O)C(=O)NCCCCN=C(N)N [Formula I compound, epoxysuccinyl-leucylamido (4-guanidino)butane]
Serum mg % Ca++ ([1]; day 2): 10.5 ± 0.3 mg %
Serum mg % Ca++ ([1]; day 4): 10.1 ± 0.4 mg %
Serum mg % Ca++ ([1]; day 6): 10.2 ± 0.2 mg %
Serum mg % Ca++ ([1]; day 8): 10.3 ± 0.3 mg %
Serum mg % Ca++ ([1]; day 10): 9.8 ± 0.4 mg %
Serum mg % Ca++ ([1]; day 11): 10.3 ± 0.4 mg %
Serum mg % Ca++ ([1]; day 12): 10.1 ± 0.3 mg %
Serum mg % Ca++ ([1]; day 13): 10.4 ± 0.4 mg %
Serum mg % Ca++ ([1]; day 14): 10.5 ± 0.3 mg %
Serum mg % Ca++ ([1]; day 15): 10.6 ± 0.4 mg %
tumor induced hypercalcemia (established) ([1]; given orally, 10 mg, 25 mg and 80 mg/kg/day on days 10-15 after tumor transplantation (Figure 1)): block
tumor induced hypercalcemia (prevention) ([1]; given orally, 40 mg/kg once a day from two days after tumor transplantation (Table I)): can prevent
Serum mg % Ca++ ([2]; 10 mg, 0 hours): 11.5 ± 0.5 mg %
Serum mg % Ca++ ([2]; 10 mg, 4 hours): 10.6 ± 0.4 mg %
Serum mg % Ca++ ([2]; 10 mg, 8 hours): 10.4 ± 0.5 mg %
Serum mg % Ca++ ([2]; 10 mg, 12 hours): 10.2 ± 0.4 mg %
Serum mg % Ca++ ([2]; 10 mg, 24 hours): 11.5 ± 0.6 mg %
Serum mg % Ca++ ([2]; 20 mg, 0 hours): 11.3 ± 0.4 mg %
Serum mg % Ca++ ([2]; 20 mg, 4 hours): 10.2 ± 0.3 mg %
Serum mg % Ca++ ([2]; 20 mg, 8 hours): 9.7 ± 0.4 mg %
Serum mg % Ca++ ([2]; 20 mg, 12 hours): 9.5 ± 0.3 mg %
Serum mg % Ca++ ([2]; 20 mg, 24 hours): 12.0 ± 0.3 mg %
Serum mg % Ca++ ([2]; 60 mg, 0 hours): 11.7 ± 0.6 mg %
Serum mg % Ca++ ([2]; 60 mg, 4 hours): 9.8 ± 0.4 mg %
Serum mg % Ca++ ([2]; 60 mg, 8 hours): 9.5 ± 0.3 mg %
Serum mg % Ca++ ([2]; 60 mg, 12 hours): 8.9 ± 0.4 mg %
Serum mg % Ca++ ([2]; 60 mg, 24 hours): 12.7 ± 0.4 mg %
drop of serum Ca⁺⁺ ([2]; most effective dose 40 mg/kg, in 12 hours): 28.8%
inhibition of papain [3]: inhibit
inhibition of cathepsin B [4]: inhibit
inhibition of cathepsin H [5]: inhibit
effect on serine proteinases [6]: unaffected
effect on metalloproteinases [7]: unaffected
